{"source": "ChEMBL document CHEMBL2046305", "about": "“Discovery of selective menaquinone biosynthesis inhibitors against Mycobacterium tuberculosis” (J Med Chem, 2012)", "system": "Mycobacterium tuberculosis", "assay": "Antibacterial activity against Mycobacterium bovis BCG by microplate alamar blue assay", "format": "functional", "conditions": "variant bovis BCG", "data": [{"smiles": "CCCCCC[C@H](CN1CCC(COc2cccc(C(=O)c3ccc(Cl)cc3)c2)CC1)OC(N)=O", "values": [{"measurement": "MIC", "value": 3, "unit": "µg/mL"}]}, {"smiles": "CCCCCC[C@H](CN1CCC(COc2cccc(/C(=N\\OC)c3ccc(Cl)cc3)c2)CC1)OC(N)=O", "values": [{"measurement": "MIC", "value": 2.95, "unit": "µg/mL"}]}]}
